Measurements reported in the supplement of paper PMC10307832.

What was measured:
Experiment in all cases: relative viability (nuclei count vs DMSO), 5 days (fraction); higher = more cells survive
Nelarabine + Foretinib = compound: COc1nc(N)nc2c1ncn2[C@@H]1O[C@H](CO)[C@@H](O)[C@@H]1O [Nelarabine] + COc1cc2c(Oc3ccc(NC(=O)C4(C(=O)Nc5ccc(F)cc5)CC4)cc3F)ccnc2cc1OCCCN1CCOCC1 [Foretinib] (partner 0.25 µM)
Method in brief: (§1)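 Lung cancer cell lines were seeded in 1536-well plates and dosed by pin tool the next day, with either a single drug or a fixed anchor-drug dose combined with five library-drug doses (not always all listed) spaced in √10 steps. Five days later, one step fixed the cells and stained their nuclei (final 0.05% Triton X-100, 1% formaldehyde, 1 ug/ml Hoechst), and nuclei were counted on 4× images. Relative viability is the nuclei count in treated wells divided by the count in vehicle wells, and each value is the median of duplicate plates.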

Adavosertib + Dasatinib = compound: C=CCn1c(=O)c2cnc(Nc3ccc(N4CCN(C)CC4)cc3)nc2n1-c1cccc(C(C)(C)O)n1 [Adavosertib] + Cc1nc(Nc2ncc(C(=O)Nc3c(C)cccc3Cl)s2)cc(N2CCN(CCO)CC2)n1 [Dasatinib] (partner 0.075 µM)
Method in brief: as §1

Nelarabine + Trametinib = compound: COc1nc(N)nc2c1ncn2[C@@H]1O[C@H](CO)[C@@H](O)[C@@H]1O [Nelarabine] + CC(=O)Nc1cccc(-n2c(=O)n(C3CC3)c(=O)c3c(Nc4ccc(I)cc4F)n(C)c(=O)c(C)c32)c1 [Trametinib] (partner 0.02 µM)
Method in brief: as §1

Nelarabine + Pictilisib = compound: COc1nc(N)nc2c1ncn2[C@@H]1O[C@H](CO)[C@@H](O)[C@@H]1O [Nelarabine] + CS(=O)(=O)N1CCN(Cc2cc3nc(-c4cccc5[nH]ncc45)nc(N4CCOCC4)c3s2)CC1 [Pictilisib] (partner 1 µM)
Method in brief: as §1

Cell Line | relative viability (Nelarabine + Foretinib; first compound 0.01 µM) | relative viability (Nelarabine + Foretinib; first compound 0.03162 µM) | relative viability (Nelarabine + Foretinib; first compound 0.1 µM) | relative viability (Nelarabine + Foretinib; first compound 0.3162 µM) | relative viability (Nelarabine + Foretinib; first compound 1 µM) | relative viability (Adavosertib + Dasatinib; first compound 0.01 µM) | relative viability (Adavosertib + Dasatinib; first compound 0.03162 µM) | relative viability (Adavosertib + Dasatinib; first compound 0.1 µM) | relative viability (Adavosertib + Dasatinib; first compound 0.3162 µM) | relative viability (Nelarabine + Trametinib; first compound 0.01 µM) | relative viability (Nelarabine + Trametinib; first compound 0.03162 µM) | relative viability (Nelarabine + Trametinib; first compound 0.1 µM) | relative viability (Nelarabine + Trametinib; first compound 0.3162 µM) | relative viability (Nelarabine + Trametinib; first compound 1 µM) | relative viability (Nelarabine + Pictilisib; first compound 0.01 µM) | relative viability (Nelarabine + Pictilisib; first compound 0.03162 µM) | relative viability (Nelarabine + Pictilisib; first compound 0.1 µM) | relative viability (Nelarabine + Pictilisib; first compound 0.3162 µM) | relative viability (Nelarabine + Pictilisib; first compound 1 µM)
EKVX | 0.966 | 0.803 | 0.732 | 0.614 | 0.777 | 0.534 | 0.602 | 0.538 | 0.52 | 0.402 | 0.306 | 0.587 | 0.282 | 0.472 | 0.547 | 0.373 | 0.359 | 0.508 | 0.474
NCI-H2347 | 0.838 | – | 0.528 | 0.65 | 0.89 | 0.378 | 0.304 | 0.267 | 0.258 | 0.338 | 0.3 | 0.307 | 0.304 | 0.27 | 0.555 | 0.303 | 0.766 | 0.726 | 0.606
NCI-H1944 | 1.09 | 0.896 | 0.776 | 0.917 | 0.834 | 0.205 | 0.201 | 0.218 | 0.199 | 0.448 | 0.443 | 0.401 | 0.388 | 0.376 | 0.369 | 0.322 | 0.339 | 0.399 | 0.366
NCI-H1395 | 1.07 | 0.923 | 1.08 | 1.01 | 1.01 | 0.427 | 0.407 | 0.416 | 0.439 | 1.12 | 1.1 | 0.946 | 1.05 | 1.12 | 0.729 | 0.646 | 0.659 | 0.694 | 0.618
SK-MES-1 | 1.07 | 0.932 | 0.946 | 0.949 | 1.18 | 0.334 | 0.392 | 0.27 | 0.193 | 0.56 | 0.567 | 0.57 | 0.555 | 0.615 | 0.34 | 0.318 | 0.331 | 0.358 | 0.373
ChaGo-K-1 | 0.971 | 0.826 | 0.82 | 0.947 | 0.882 | 0.641 | 0.602 | 0.56 | 0.535 | 1 | 0.748 | 0.935 | 0.845 | 0.899 | 0.699 | 0.611 | 0.934 | 0.678 | 0.743
NCI-H596 | 0.829 | 0.917 | 0.773 | 0.848 | 0.84 | 0.53 | 0.656 | 0.66 | 0.541 | 0.912 | 0.861 | 0.783 | 0.907 | 0.834 | 0.402 | 0.445 | 0.399 | 0.376 | 0.446
NCI-H3122 | 1.11 | 0.771 | – | 1.05 | 0.962 | 0.816 | 0.849 | 0.922 | 0.893 | 0.307 | 0.163 | – | 0.23 | 0.237 | 0.588 | 0.388 | – | 0.63 | 0.611
LXF-289 | 1.07 | 0.922 | 0.988 | 1.07 | 0.969 | 0.309 | 0.22 | 0.213 | 0.243 | 0.714 | 0.74 | 0.673 | 0.667 | 0.73 | 0.739 | 0.841 | 0.845 | 0.801 | 0.751
